Results on 1 compound are retold here after PMC9645662, “Dual role of an essential HtrA2/Omi protease in the human malaria parasite: Maintenance of mitochondrial homeostasis and induction of apoptosis-like cell death under cellular stress” (PLOS Pathogens, 2022).

This test concerns the target T1, PfHtrA2 (HtrA2/Omi serine protease) (Plasmodium falciparum, UniProt A0A143ZXD4).
T1 construct: gene PF3D7_0812200; protease domain (135–290 aa; HtrA2-protease), histidine-tagged, expressed in E. coli
T1 sequence (A0A143ZXD4 135-290): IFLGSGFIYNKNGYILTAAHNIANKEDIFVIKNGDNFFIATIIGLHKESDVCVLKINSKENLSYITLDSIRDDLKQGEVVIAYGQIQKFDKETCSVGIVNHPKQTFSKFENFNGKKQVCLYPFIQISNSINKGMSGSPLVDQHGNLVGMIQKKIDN
In words: fluorogenic protease activity assay of the recombinant protease domain, concentration-dependent inhibition. In kind it is biochemical.

The term IC50 denotes the midpoint of a concentration-inhibition curve. With `O=C1C(=Cc2ccc(-c3ccccc3[N+](=O)[O-])o2)C(=O)N(c2ccccc2)C(=S)N1c1ccccc1` [ucf-101], the IC50 worked out at 8.1 µM.
